Laboratory results taken from ChEMBL document CHEMBL1201862, “PubChem BioAssay data set” (2004).
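In this assay, cells in 96-well plates receive the compound at five concentrations for 48 hours. Endpoints are linearly interpolated between the surrounding concentrations. GI50: concentration for 50% inhibition of growth.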 The source made the active and inactive calls. Cut-off read from the data, not from the text of the source: active = GI50 up to about 1.1 µM and inactive = higher.

Experiments:
Test in all cases: NCI anticancer screen, dose series, 48 h
SK-MEL-5 = test system: SK-MEL-5
SK-MEL-28 = test system: SK-MEL-28
ACHN = test system: ACHN
HCT-116 = test system: HCT-116
PC-3 = test system: PC-3
SNB-75 = test system: SNB-75
Malme-3M = test system: Malme-3M
HCT-15 = test system: HCT-15
OVCAR-8 = test system: OVCAR-8
EKVX = test system: EKVX
A549 = test system: A549
786-0 = test system: 786-0
M14 = test system: M14
TK-10 = test system: TK-10
CAKI-1 = test system: CAKI-1
HCC 2998 = test system: HCC 2998
SK-MEL-2 = test system: SK-MEL-2
OVCAR-3 = test system: OVCAR-3
MDA-N = test system: MDA-N
HL-60 = test system: HL-60
HOP-92 = test system: HOP-92
KM12 = test system: KM12
NCI-H460 = test system: NCI-H460
K562 = test system: K562
CCRF-CEM = test system: CCRF-CEM
BT-549 = test system: BT-549
LOX IMVI = test system: LOX IMVI
NCI-H522 = test system: NCI-H522
MOLT-4 = test system: MOLT-4
MDA-MB-435 = test system: MDA-MB-435
HOP-62 = test system: HOP-62
MCF7 = test system: MCF7
UO-31 = test system: UO-31
SF-539 = test system: SF-539
MDA-MB-231 = test system: MDA-MB-231
SK-OV-3 = test system: SK-OV-3
OVCAR-5 = test system: OVCAR-5
IGROV-1 = test system: IGROV-1
COLO 205 = test system: COLO 205
UACC-257 = test system: UACC-257
SF-295 = test system: SF-295
SNB-19 = test system: SNB-19
U-251 = test system: U-251
NCI-H23 = test system: NCI-H23
OVCAR-4 = test system: OVCAR-4
SW-620 = test system: SW-620
NCI/ADR-RES = test system: NCI/ADR-RES
NCI-H226 = test system: NCI-H226
HT-29 = test system: HT-29
SF-268 = test system: SF-268
A498 = test system: A498
SN12C = test system: SN12C
DU-145 = test system: DU-145
UACC-62 = test system: UACC-62
RXF 393 = test system: RXF 393
T47D = test system: T47D
RPMI-8226 = test system: RPMI-8226

Measured: GI50

COc1ccc(-c2nnc(CCCCCCCCc3nnc(-c4ccc(OC)cc4)o3)o2)cc1
> 100 µM: HCT-15
inactive: SK-MEL-5 > 100 µM | SK-MEL-28 > 100 µM | ACHN > 100 µM | HCT-116 60.7 µM | PC-3 > 100 µM | SNB-75 27 µM | Malme-3M > 100 µM | OVCAR-8 57.9 µM | EKVX > 100 µM | A549 > 100 µM | 786-0 57.4 µM | M14 > 100 µM | TK-10 65.2 µM | CAKI-1 > 100 µM | HCC 2998 > 100 µM | SK-MEL-2 > 100 µM | OVCAR-3 > 100 µM | MDA-N > 100 µM | HL-60 > 100 µM | HOP-92 41.1 µM | KM12 > 100 µM | NCI-H460 > 100 µM | K562 > 100 µM | CCRF-CEM > 100 µM | BT-549 16.7 µM | LOX IMVI 91.4 µM | NCI-H522 84.3 µM | MOLT-4 > 100 µM | MDA-MB-435 > 100 µM | HOP-62 25.4 µM | MCF7 > 100 µM | UO-31 > 100 µM | SF-539 63.7 µM | MDA-MB-231 18.3 µM | SK-OV-3 54.2 µM | OVCAR-5 > 100 µM | IGROV-1 > 100 µM | COLO 205 > 100 µM | UACC-257 > 100 µM | SF-295 50.4 µM | SNB-19 36.4 µM | U-251 27.6 µM | NCI-H23 > 100 µM | OVCAR-4 > 100 µM | SW-620 > 100 µM | NCI/ADR-RES > 100 µM | NCI-H226 > 100 µM | HT-29 > 100 µM | SF-268 > 100 µM | A498 44.4 µM | SN12C > 100 µM | DU-145 > 100 µM

CCOC(=O)/C(=C\NC(N)=S)C(=O)c1ccccc1
> 100 µM: HCT-15
inactive: SK-MEL-5 > 100 µM | SK-MEL-28 > 100 µM | ACHN > 100 µM | HCT-116 > 100 µM | SNB-75 > 100 µM | OVCAR-8 > 100 µM | EKVX > 100 µM | A549 > 100 µM | 786-0 > 100 µM | M14 > 100 µM | TK-10 > 100 µM | UACC-62 > 100 µM | CAKI-1 > 100 µM | HCC 2998 > 100 µM | RXF 393 > 100 µM | SK-MEL-2 > 100 µM | OVCAR-3 > 100 µM | MDA-N > 100 µM | HL-60 > 100 µM | HOP-92 > 100 µM | KM12 > 100 µM | NCI-H460 > 100 µM | BT-549 > 100 µM | LOX IMVI > 100 µM | MOLT-4 > 100 µM | MDA-MB-435 > 100 µM | HOP-62 > 100 µM | MCF7 > 100 µM | UO-31 > 100 µM | T47D > 100 µM | SF-539 > 100 µM | MDA-MB-231 > 100 µM | SK-OV-3 > 100 µM | OVCAR-5 > 100 µM | IGROV-1 > 100 µM | COLO 205 > 100 µM | UACC-257 > 100 µM | SF-295 > 100 µM | SNB-19 > 100 µM | U-251 > 100 µM | NCI-H23 > 100 µM | OVCAR-4 > 100 µM | SW-620 > 100 µM | NCI/ADR-RES > 100 µM | NCI-H226 > 100 µM | HT-29 > 100 µM | SF-268 > 100 µM | A498 > 100 µM | SN12C > 100 µM | DU-145 > 100 µM

CC1CSc2nc3nc(S)nc-3c(O)n2C1 (centres undefined)
> 100 µM: HCT-15
inactive: SK-MEL-5 > 100 µM | SK-MEL-28 > 100 µM | ACHN > 100 µM | HCT-116 > 100 µM | SNB-75 > 100 µM | Malme-3M > 100 µM | OVCAR-8 > 100 µM | EKVX > 100 µM | A549 > 100 µM | 786-0 > 100 µM | TK-10 > 100 µM | UACC-62 > 100 µM | CAKI-1 > 100 µM | HCC 2998 > 100 µM | RXF 393 > 100 µM | OVCAR-3 > 100 µM | HL-60 > 100 µM | KM12 > 100 µM | NCI-H460 > 100 µM | K562 > 100 µM | CCRF-CEM > 100 µM | BT-549 > 100 µM | LOX IMVI > 100 µM | MOLT-4 > 100 µM | MDA-MB-435 > 100 µM | HOP-62 > 100 µM | MCF7 > 100 µM | UO-31 > 100 µM | T47D > 100 µM | SF-539 > 100 µM | MDA-MB-231 > 100 µM | SK-OV-3 > 100 µM | OVCAR-5 > 100 µM | IGROV-1 > 100 µM | COLO 205 > 100 µM | UACC-257 > 100 µM | SF-295 > 100 µM | SNB-19 > 100 µM | RPMI-8226 > 100 µM | U-251 > 100 µM | NCI-H23 > 100 µM | OVCAR-4 > 100 µM | SW-620 > 100 µM | NCI/ADR-RES > 100 µM | NCI-H226 > 100 µM | SF-268 > 100 µM | A498 > 100 µM | SN12C > 100 µM | DU-145 > 100 µM
